In the test the test system is AML primary cells. In words: Viability assay: ex-vivo drug testing of AML primary cells with kinase inhibitors (Guava ViaCount, 72h). The conditions noted are these: for AML cases whose viability was reduced by >50% relative to DMSO control / number of AML cases whose viability was reduced by >50% relative to DMSO control / sensitivity of M4-Like and CDs+ cases versus M1-Like and CDs− cases (cell viability): 72h; for AML cases whose viability was reduced by >50% relative to DMSO control / number of AML cases whose viability was reduced by >50% relative to DMSO control: ex vivo; for sensitivity of M4-Like and CDs+ cases versus M1-Like and CDs− cases (cell viability): 1 μM PAKi, 10 μM FLT3/PKCi (FIG. 5A-B). The format is cell-based, human. The protocol:
The study was performed in 36 randomly selected primary samples of mononuclear cells extracted from the peripheral blood of AML patients at diagnosis. Experiments were performed as described below to determine the in vitro viability of the cells in response to treatment with inhibitors of the kinases FLT3/PKC (midostaurin, FLT3/PKCi), PAK (PF-3758309 PAKi), CK2 (silmitasertib CK2i) and MEK (trametinib, MEKi) The P38 inhibitor (P38i) TAK-715 was included as a negative control. Cells obtained from of 36 AML patients with well annotated clinical data were treated with these compounds for 72h.
The study was performed in 36 primary samples of mononuclear cells extracted from the peripheral blood of AML patients at diagnosis. Samples were randomly selected from the BCI tissue bank collection. Initially, 45 samples were included in the study but nine were later excluded because these were not viable in the ex-vivo experiments. Material availability allowed proteomics and mass cytometry analysis of 30 samples and DNA sequencing of 27 samples. Ex-vivo drug testing was performed in quadruplicate sampling replicates and viability values averaged and expressed relative to vehicle control.
Ex-vivo drug testing of AML primary cells was as previously described in Casado P, Rodriguez-Prados J C, Cosulich S C, et al. Kinase-substrate enrichment analysis provides insights into the heterogeneity of signaling pathway activation in leukemia cells. Sci Signal. 2013; 6(268):rs6. Briefly, cells were re-suspended in MS-5 conditioned IMDM medium, seeded in 96 well plates and treated with vehicle or 1 to 10000 nM of the indicated inhibitors for 72h. Cells were stained with Guava ViaCount reagent and cell number and viability was measured. Flow cytometry data were analyzed using CytoSoft (v2.5.7).
Mass cytometry was used to simultaneously measure the surface expression of 17 differentiation markers (CD3, CD7, CD11b, CD14, CD15, CD16, CD19, CD33, CD34, CD38, CD44, CD45, CD64, CD117, CD123, CD184, HLA-DR) in mononuclear cells extracted from the peripheral blood of 30 AML patients. Label free quantitative phosphoproteomics based on TiO2 phosphoenrichment was used to quantify>5,000 phosphorylation sites in the same AML primary samples and KSEA technology was applied to infer kinase activity from the phosphoproteomics data. Gene ontology enrichment was calculated based on the genes that code for the proteins where the phosphorylation sites were detected using DAVID software. Guava EasyCyte Flow Cytometry was used to determine cell viability after the treatment of the same patient samples with 5 kinase inhibitors (PF-3758309, Midostaurin, silmitasertib, trametinib and TAK715 aiming to target the kinases PAK, Flt-3, Casein Kinase 2, MEK and P38, respectively).

[1] abbreviates: 15 cases positive for RAS/MEK/ERK activation.

As for `Cc1nc(Nc2[nH]nc3c2CN(C(=O)N[C@H](CN(C)C)c2ccccc2)C3(C)C)c2sccc2n1` [PAKi, PF-3758309], the “sensitivity of M4-Like and CDs+ cases versus M1-Like and CDs− cases (cell viability)” value is given as “more sensitive”. Further, where the note is “1 μM dose, 36 AML cases”, the “potency relative to the other compounds tested” value is on record as “most potent of all the compounds tested”, the “AML cases whose viability was reduced by >50% relative to DMSO control” value is given as 50% and the “number of AML cases whose viability was reduced by >50% relative to DMSO control” value is given as 18/36.
Regarding `CC(=O)Nc1cccc(-n2c(=O)n(C3CC3)c(=O)c3c(Nc4ccc(I)cc4F)n(C)c(=O)c(C)c32)c1` [MEKi, trametinib], under “1 μM dose, 36 AML cases”, the “AML cases whose viability was reduced by >50% relative to DMSO control” value worked out at 22% and the “number of AML cases whose viability was reduced by >50% relative to DMSO control” value is given as 8/36. Further, under setting [1], the “cases positive for RAS/MEK/ERK activation that showed high responses” value is on record as approximately 50% and the “number of cases positive for RAS/MEK/ERK activation that showed high responses” value is 7/15.
For `O=C(O)c1ccc2c(c1)nc(Nc1cccc(Cl)c1)c1ccncc12` [CK2i, silmitasertib], where the note is “1 μM dose, 36 AML cases”, the “AML cases whose viability was reduced by >50% relative to DMSO control” value stood at 22% and the “number of AML cases whose viability was reduced by >50% relative to DMSO control” value is listed as 8/36.
For the molecule `CO[C@@H]1[C@H](N(C)C(=O)c2ccccc2)C[C@H]2O[C@]1(C)n1c3ccccc3c3c4c(c5c6ccccc6n2c5c31)C(=O)NC4` [FLT3/PKCi, midostaurin], the “sensitivity of M4-Like and CDs+ cases versus M1-Like and CDs− cases (cell viability)” value is reported as “more sensitive”. Further, for the setting “1 μM dose, 36 AML cases”, the “AML cases whose viability was reduced by >50% relative to DMSO control” value is 25% and the “number of AML cases whose viability was reduced by >50% relative to DMSO control” value is listed as 9/36. Where the note is “FIG. 7F and FIG. 14B”, the “effect of FLT3-ITD status on the responses of cells” value is reported as “did not have an effect” and the “sensitivity of samples positive for either CDs or phosphorylation on GSK3A or PCKδ versus other cases” value was “more sensitive”.
As to `CCc1nc(-c2cccc(C)c2)c(-c2ccnc(NC(=O)c3ccccc3)c2)s1` [P38i, TAK-715], the “sensitivity of M4-Like and CDs+ cases versus M1-Like and CDs− cases (cell viability)” value is recorded as “no differences”. In addition, where the note is “1 μM dose, 36 AML cases”, the “AML cases whose viability was reduced by >50% relative to DMSO control” value is on record as 8% and the “number of AML cases whose viability was reduced by >50% relative to DMSO control” value is listed as 3 AML cases.

The values are drawn from patent publication US12282021B2, “Stratification of acute myeloid leukaemia patients for sensitivity to kinase pathway inhibitor therapy” (KINOMICA LIMITED, priority 2017, dated 2025).
